pIC50: −log10 of the molar value. Where two headings read alike, the source gives them in different places.
Columns and labels:
HIV-1IIIB = experiment: Inhibition of p24 production (HIV-1IIIB infection of MT-2 cells); type: cell-based; conditions: fourth day, p24 ELISA
Procedure: Experiment 1.2: Inhibition of HIV-1IIIB Infection
After 1 h, half of the culture medium was changed and replaced by fresh medium (with/without Lipid-conjugate) and after 24 h, the second half of the culture medium was changed and replaced by fresh medium (with/without Lipid-conjugate). On the fourth day after incubation at 37° C., 100 μl of culture supernatants were collected from each well and an equal volume of fresh medium was added to the wells. The collected supernatants were mixed with an equal volume of 5% (v/v) Triton X-100 and assayed for p24 antigen using an ELISA kit from Coulter Immunology (Hialeah, Fla.).

[1] = test system: HIV-1IIIB-infected H9 cells and uninfected MT-2 cells; experiment: Inhibition of fusion between HIV-infected and uninfected cells; type: cell-based; conditions: for IC50 (mean ± SD), inhibition of fusion / IC90 (mean ± SD), inhibition of fusion: H9/HIV-1 IIIB + MT-2 cells, 2 h; for pIC50 / IC90: Table 1.4
Procedure: In this assay, HIV-1IIIB-infected H9 cells were labeled with BCECF (2′,7′-bis(2-carboxyethyl)-5-6-carboxyfluorescein-acetoxymethyl-ester, Molecular Probes, Eugene, Oreg.) according to the manufacturer's instructions. BCECF-labeled H9/HIV-1 IIIB cells (10^4) were mixed with 1×10^5 uninfected MT-2 cells. After incubation in a 96-well plate at 37° C. for 2 h, the fused and unfused labeled cells were counted under an inverted fluorescence microscope at ×160 magnification. At least 200 BCECF-labeled cells were counted and the proportion of fused cells was determined Fusion tests were carried out in the presence and absence of graded quantities of the tested Lipid-conjugates. […] The IC50 represents the concentration of a drug that is required to achieve 50% inhibition. Similarly, the IC90 represents the concentration of a drug that is required to achieve 90% inhibition.

mice = experiment: Acute (7 day) toxicity test; type: in vivo; conditions: mice, one week after a single i.p. dose of 1000, 500 or 200 mg/kg; versus untreated mice
Procedure: […] Mortality rate, body weight, blood count (red and white cells), hematocrit, and internal organ histology after sacrifice were assessed. These parameters were compared in Lipid-conjugate-treated and in control, untreated mice.

Punta Toro virus [2] = type: cell-based, strain Adames
[3] = target: V3 (third variable) domain of the HIV-1 envelope glycoprotein gp120; experiment: V3 antibody binding (ELISA); set-up: species or system human immunodeficiency virus type 1 (HIV-1); conditions: standard ELISA
Procedure: V3 antibody binding is an assay that uses an antibody that binds to the V3 (third variable) domain of the human immunodeficiency virus type 1 (HIV-1) envelope glycoprotein gp120. Anti-V3 domain antibodies may provide an indicator of the presence and amount of HIV. V3 antibody binding was determined by standard ELISA.

[4] = test system: Influenza A (H3N2 strain) virus; type: cell-based, Influenza type A, A/Panama/2007/99 (H3N2)
[5] = test system: Respiratory syncytial virus; type: cell-based, strain A2; conditions: lower range of doses, at the concentrations tested
[6] = test system: vaccinia virus (WR strain); type: cell-based; conditions: 48 hr
Influenza B virus = type: cell-based, Influenza type B, B/Hong Kong/330/02; conditions: lower range of doses, at the concentrations tested
Punta Toro virus [7] = type: cell-based, strain Adames; remark: listed apart in the source
Human RBC = experiment: Prevention of hemolysis of human red blood cells; type: cell-based; conditions: 20 min, 10 μM Lipid-conjugate, None = 1.000
Procedure: Hemolysis, the breakdown of red blood cells (RBC), may be either a primary disease in itself, or a syndrome associated with another disease or physiological insult. In order to determine the effect of Lipid-conjugates on hemolysis, red blood cells were incubated in the presence of known membrane destabilizing agents and the release of hemoglobulin into the extracellular medium was detected.
Human RBC were washed in saline and suspended in Hanks buffer (pH 7.4). Hemolysis was induced in the absence or presence of 10 μM Lipid-conjugates by treatment with either 5 U/ml streptolysin O (SLO), 25 U/ml streptolysin S (SLS), or 5 μg/ml lysophosphatidylcholine (lyso-PC) for 20 min. The cell membranes were spun and the hemoglobin content in the supernatant was determined by measuring the O.D. at 540 nm (Table 5.1).

[8] = test system: Guinea pig tracheal rings; experiment: Inhibition of tracheal ring contraction; conditions: Lipid-conjugate 10 μM
Procedure: A muscle preparation (tracheal rings) was isolated from rats (Experiments 3.1-3.3) and from guinea pigs (Experiments 3.4-3.5). Muscle contraction was measured by attachment of the muscle to a pressure transducer, which works much like a spring. Administration of asthmatogenic substances such as endothelin-1 (ET) and acetylcholine (AcCh) induces muscle contraction. Endothelins are released upon vascular endothelial injury, and they activate macrophages and act as strong chemo-attractants for circulating monocytes. Endothelins affect vascular smooth muscle fibroblast proliferation; help regulate vascular, airway, and intestinal smooth muscle tone; increase the activity of bone alkaline phosphatase; stimulate release of atrial natriuretic peptide (ANP) from atrial cardiocytes; inhibit the release of renin from glomeruli and modulate norepinephrine at sympathetic nerve termini. Opposing vasomotor effects are regulated through the binding of distinct endothelin receptors for vasoconstriction and vasodilation. Endothelins have been linked to atherosclerosis and various cardiovascular disease states. ET-1 is important in congestive heart failure, renal failure, pulmonary hypertension, hyperlipidemia and metastatic prostate cancer. On the other hand, AcCh is one of the three main receptors on the bronchi of the lungs, which are basically tubes with muscular walls. Stimulation of bronchial AcCh receptor induces muscle contraction and decreased airflow through the bronchi. Thus, ET and AcCh were used to experimentally induce muscle contraction in the lungs as a model of obstructive respiratory disorders.
Experiment 3.4: Guinea pig tracheal rings (in a linear array), immersed in a ringer bath, were connected to an apparatus measuring the length of the ring chain. […] Human airways have both Histamine (H)-1 and H2 receptors. H1 receptors, which mediate bronchoconstriction, predominate. Histamine application in experimental models produces signs and symptoms of asthma, such as narrowing of the airways, mucus secretion, wheezing, and coughing.

[9] = test system: PGE2 and TXB2 production by guinea pig tracheal rings; experiment: Tracheal tissue PGE2 and TXB2 production (radioimmunoassay); conditions: Histamine (40 μM) + Compound XXVI (10 μM); histamine alone 5.6
Procedure: Experiment 3.5: Guinea pig tracheal rings were incubated with or without Compound XXVI for 30 minutes prior to stimulation. The medium was collected after 30 minutes, and PGE2 and TXB2 levels were determined by radioimmunoassay (Table 3.2). PGE2 and TXB2 are metabolites of arachidonic acid produced during inflammatory response.

[10] = test system: Influenza A (H1N1 strain) virus; type: cell-based, Influenza type A, A/New Caledonia/20/99 (H1N1); conditions: high concentration, Neutral Red Uptake Assay
[11] = test system: Influenza A (H1N1 strain) virus; type: cell-based, Influenza type A, A/New Caledonia/20/99 (H1N1); conditions: high concentration; Visual Observation Assay; Influenza A (H1N1 strain)
[12] = test system: Influenza A (H3N2 strain) virus; type: cell-based, Influenza type A, A/Panama/2007/99 (H3N2); conditions: high concentration, Neutral Red Uptake Assay
[13] = lower range of doses, at the concentrations tested

PE conjugated to Polygeline (haemaccel) [Compound XXVII]
IC50 (mean ± SD), inhibition of p24 production (HIV-1IIIB): 375.8 ± 119.5 µg/mL | IC90 (mean ± SD), inhibition of p24 production (HIV-1IIIB): >500 µg/mL | IC50 (mean ± SD), inhibition of fusion [1]: >500 µg/mL | IC90 (mean ± SD), inhibition of fusion [1]: >500 µg/mL

dipalmitoyl-phosphatidyl-ethanolamine (PE) conjugated to chondroitin-sulfate A [Compound XXV]
toxicity: mortality rate, body weight, blood count, hematocrit, internal organ histology (mice): induced hemorrhage | pIC50 (HIV-1IIIB): 5.84 | IC50 (mean ± SD), inhibition of p24 production (HIV-1IIIB): 72.5 ± 8.0 µg/mL | IC90 (HIV-1IIIB): 2.12 µM | IC90 (mean ± SD), inhibition of p24 production (HIV-1IIIB): 106.0 ± 10.3 µg/mL | SI (IC50/EC50) (Punta Toro virus [2]): 0 | EC50 (Punta Toro virus [2]; low concentrations, Visual Observation Assay, Punta Toro A): >100 µg/mL | virus inhibitory effect against Punta Toro virus (Punta Toro virus [2]; [13]): did not display a virus inhibitory effect | pIC50 [3]: 6.70 | virus inhibitory effect against influenza A (H3N2 strain) [4, 13]: did not demonstrate a virus inhibitory effect | virus inhibitory effect against RSV [5]: did not demonstrate a virus inhibitory effect | % inhibition [6]: 62.8% | Virus titer [6]: 3.2 × 10^7 PFU/culture | IC50 (mean ± SD), inhibition of fusion [1]: >500 µg/mL | IC90 (mean ± SD), inhibition of fusion [1]: >500 µg/mL | pIC50 [1]: < 5.00 | IC90 [1]: > 10 µM | virus inhibitory effect against influenza B (Influenza B virus): did not demonstrate a virus inhibitory effect | SI (IC50/EC50) (Punta Toro virus [7]): 0 | EC50 (Punta Toro virus [7]; low concentrations, Neutral Red Uptake Assay, Punta Toro A): >100 µg/mL

hyaluronic acid [HA, reference compound]
HEMOLYSIS (O.D. AT 540 nm), Lyso-PC (Human RBC; 5 μg/ml lysophosphatidylcholine): 1.875 O.D. | HEMOLYSIS (O.D. AT 540 nm), SLO (Human RBC; 5 U/ml streptolysin O): 1.000 O.D. | HEMOLYSIS (O.D. AT 540 nm), SLS (Human RBC; 25 U/ml streptolysin S): 1.000 O.D.

PE conjugated to CMC [Compound XXVI]
toxicity: mortality rate, body weight, blood count, hematocrit, internal organ histology (mice): did not alter the parameters | % Inhibition of tracheal ring contraction ([8]; stimulant Endothelin-1 (100 nM)): 92 ± 1.1% | % Inhibition of tracheal ring contraction ([8]; stimulant Histamine (20 μM)): 69 ± 0.1% | % Inhibition of tracheal ring contraction ([8]; stimulant Phospholipase (0.5 μ/ml) (crotalus atrox type II)): 100 ± 0.3% | TXB2 [9]: 1.75 ng/mL

NC(=O)c1ncn([C@@H]2O[C@H](CO)[C@@H](O)[C@H]2O)n1 [Ribavirin, reference compound]
SI (IC50/EC50) [10]: 25 | SI (IC50/EC50) ([4]; high concentration, Visual Observation Assay, Influenza A (H3N2 strain)): 56 | SI (IC50/EC50) [11]: 22 | SI (IC50/EC50) [12]: 36

dimyristoyl-phosphatidyl-ethanolamine linked to HA [Compound XXIII]
pIC50 (HIV-1IIIB): 5.75 | IC50 (mean ± SD), inhibition of p24 production (HIV-1IIIB): 118.0 ± 16.8 µg/mL | IC90 (HIV-1IIIB): 4.44 µM | IC90 (mean ± SD), inhibition of p24 production (HIV-1IIIB): 296.3 ± 104.0 µg/mL | pIC50 [3]: 5.52 | % inhibition [6]: 99.9% | Virus titer [6]: 7.7 × 10^4 PFU/culture | IC50 (mean ± SD), inhibition of fusion [1]: 122.8 ± 14.8 µg/mL | IC90 (mean ± SD), inhibition of fusion [1]: 219.8 ± 10.6 µg/mL | pIC50 [1]: 5.74 | IC90 [1]: 3.3 µM

— patent US7504384B2 (priority 2000, dated 2009)
